Patent US9057727B2, “Screening methods using G-protein coupled receptors and related compositions” (The General Hospital Corporation, priority 2007, dated 2015)
Read-outs that look alike come from different tables or passages of the source. Peptide text beside a SMILES is read from it.

Tests used:
SaOS cells = experiment: cAMP production in SaOS cells, dose-response; format: cell-based
[1] = Plasma cAMP in C57BL/6 mice after intravenous injection; format: in vivo; details: i.v. (Example 4)
Procedure: Blood was withdrawn 10 minutes after injection, and the plasma level of cAMP was measured by RIA.
Blood was withdrawn 10 minutes after injection and plasma level of cAMP was measured by RIA.
In the cAMP experiment (FIG. 29A), blood was withdrawn 10 minutes after injection and plasma level of cAMP was measured by RIA.

[2] = target: T1, human PTHR, G protein-coupled conformation (RG) (Homo sapiens, UniProt Q03431); experiment: Competition binding to RG conformation of hPTHR (COS-7 membranes, GαsND, 125I-[Aib1,3,M]PTH(1-15) tracer); details: for IC50: Table 2, read-out: RG binding affinity hPTHR IC50
T1 construct: expressed in transfected cells; host or cells: COS-7, transient (Fugene-6); membranes
T1 sequence (Q03431 27-593): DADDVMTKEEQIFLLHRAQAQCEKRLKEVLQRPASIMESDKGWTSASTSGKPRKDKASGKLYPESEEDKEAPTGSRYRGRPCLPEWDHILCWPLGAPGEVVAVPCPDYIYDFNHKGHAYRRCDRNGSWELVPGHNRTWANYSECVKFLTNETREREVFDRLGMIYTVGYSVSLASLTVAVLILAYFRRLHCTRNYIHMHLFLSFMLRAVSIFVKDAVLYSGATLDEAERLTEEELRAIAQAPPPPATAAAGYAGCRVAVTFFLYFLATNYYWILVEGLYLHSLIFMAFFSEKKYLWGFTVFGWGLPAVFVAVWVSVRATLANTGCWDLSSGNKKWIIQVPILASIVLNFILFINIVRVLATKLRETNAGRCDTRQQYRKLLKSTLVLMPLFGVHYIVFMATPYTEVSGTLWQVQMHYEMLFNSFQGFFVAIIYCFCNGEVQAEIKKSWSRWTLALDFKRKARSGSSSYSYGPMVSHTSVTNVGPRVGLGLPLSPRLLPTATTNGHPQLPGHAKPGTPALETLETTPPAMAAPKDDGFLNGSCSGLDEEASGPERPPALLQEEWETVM

human PTH1 receptor = target: T2, human PTH1 receptor (Homo sapiens, UniProt Q03431); experiment: cAMP signaling dose-response in HKRK-B7 cells; format: cell-based; details: 15 min, 37° C., IBMX
T2 construct: expressed in transfected cells
T2 sequence (Q03431 27-593): T1 sequence (Q03431 27-593)
Procedure: In the cAMP experiments of FIG. 14, HKRK-B7 were seeded in 96 well plates at 1×10^5 cells/well and incubated overnight. On the following day, the cells were washed once with […] of binding buffer (50 mM Tris-HCl, pH 7.7, 100 mM NaCl, 5 mM KCl, 2 mM CaCl2, 5% heat-inactivated horse serum, 0.5% heat-inactivated fetal bovine serum), followed by addition of 100 μl cAMP assay buffer (DMEM, 2 mM IBMX, 1 mg/ml bovine serum albumin, 35 mM Hepes-NaOH, pH 7.4) on ice. […] After removing the medium, the plates were placed on powdered dry ice to freeze the cells and then removed from dry ice. The cells were thawed with 50 μl of 50 mM HCl and frozen again on dry ice. The level of intracellular cAMP was measured with a commercially available cAMP EIA kit (Biotrack cAMP EIA system, GE Healthcare).
HKRK-B, which are LLC-PK1 cells over-expressing human PTH1 receptor at levels of 9.5×10^5 per cell were used in the cAMP signaling assay. The cells were cultured at 37° C. in a humidified atmosphere containing 5% CO2 in Dulbecco's modified Eagle's medium (DMEM), supplemented with 10% fetal bovine serum (Hyclone), 100 units/ml penicillin G, and 100 μg/ml streptomycin sulfate (Invitrogen Corp). […] All peptides were dissolved at 1 mM in 10 mM acetic acid, and stored at −80° C. The cAMP stimulation assay was performed as described above for HKRK-B7 cells. […] Cells were treated for 15 minutes at 37° C. with varying concentrations of ligands in the presence of IBMX.

[3] = tested on: LLCPK1-B64 cells or SaOS-2 cells; experiment: cAMP screen of substituted PTHrP(1-28) analogs (% parent); format: cell-based; details: parent PTHrP(1-28)NH
Summary of the method: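 LLCPK1-B64 or SaOS-2 cells exposed to peptide analogs at 3×10^−9M with IBMX for 30 minutes at room temperature, then cAMP measured. Each analog's response expressed as percentage of that for parent PTHrP(1-28).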

MC3T3-E1 cells = experiment: cAMP in MC3T3-E1 cells, dose-response; format: cell-based
Procedure: In the 1-30 scaffold, Gly, Ser, Leu, Asn, Gln, Trp, Glu, and Lys were substituted at position 29; Gly, Ser, Leu, Asn, Asp, Trp, and Lys were substituted at position 30; and Ser, Leu, Asn, Val, Trp, Glu, and Lys were substituted at position 31. […] These peptides were tested for cAMP activity in MC3T3-E1 cells.

[4] = target: T3, human PTHR, G protein-uncoupled conformation (R^0) (Homo sapiens, UniProt Q03431); experiment: Competition binding to R0 conformation of hPTHR (COS-7 membranes, GTPγS, 125I-PTH(1-34) tracer); details: Table 2; for R0/RG selectivity: hPTHR; for IC50: read-out: R^0 binding affinity hPTHR IC50
T3 construct: expressed in transfected cells; host or cells: COS-7, transient (Fugene-6)
T3 sequence (Q03431 27-593): T1 sequence (Q03431 27-593)
Summary of the method: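 Membranes from hPTHR-transfected COS-7 cells (20-100 μg/mL protein) incubated 90 min with radioligand (~150,000 cpm/ml) and unlabeled ligands, then filtered. Specific binding expressed as % of binding without competitor.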

[5] = Table 2, read-out: SaOS camp EC50
[6] = Table 3, read-out: dose-response cAMP in SaOS (EC50)
[7] = Table 2, read-out: MC3T3-E1 cAMP EC50

SMILES	cAMP-inducing activity compared with parent, in words (SaOS cells)	EC50 (SaOS cells; [5])	EC50 (SaOS cells; [6])	plasma cAMP 10 minutes after injection, in words [1]	cAMP potency and RG binding affinity compared with PTH(1-34), in words [2]	IC50 [2]	cAMP in HKRK-B7 cells Max (human PTH1 receptor)	screen cAMP (% parent) [3]	EC50 (MC3T3-E1 cells; [7])	EC50 (MC3T3-E1 cells; Table 3, read-out: dose-response cAMP in MC3T3-E1 (EC50))	R0/RG selectivity [4]	IC50 [4]
CC[C@H](C)[C@H](NC(=O)[C@H](CC(C)C)NC(=O)[C@H](CCCCN)NC(=O)[C@H](CC(C)C)NC(=O)[C@H](CC(C)C)NC(=O)[C@H](Cc1ccccc1)NC(=O)[C@H](C)NC(=O)[C@H](CCCNC(=N)N)NC(=O)[C@H](CCCNC(=N)N)NC(=O)[C@H](CCCNC(=N)N)NC(=O)[C@H](C)NC(=O)[C@H](CC(=O)O)NC(=O)[C@H](CCC(N)=O)NC(=O)[C@@H](NC(=O)[C@H](CO)NC(=O)[C@H](CCCCN)NC(=O)CNC(=O)[C@H](CCCCN)NC(=O)[C@H](CC(=O)O)NC(=O)[C@H](Cc1c[nH]cn1)NC(=O)[C@H](CC(C)C)NC(=O)[C@H](CC(C)C)NC(=O)[C@H](CCC(N)=O)NC(=O)[C@H](Cc1c[nH]cn1)NC(=O)[C@H](CCC(=O)O)NC(=O)[C@H](CO)NC(=O)[C@@H](NC(=O)[C@H](C)N)C(C)C)[C@@H](C)CC)C(N)=O [A18, 22, L25, K26-PTHrP(1-28)NH, A18,22,L25,K26-PTHrP(1-28)] (H-AVSEHQLLHDKGKSIQDARRRAFLLKLI-NH2; N-terminus assumed)	Marked enhancements of cAMP-inducing activity	0.002 nM	0.002 nM	Marked enhancements	cAMP potency and RG binding affinity that is greater than that of PTH(1-34)	0.04 nM	56.4 pm/well	305 % parent	0.054 nM	0.054 nM	6971	310 nM
CC[C@H](C)[C@H](NC(=O)[C@H](CC(C)C)NC(=O)[C@H](CCCCN)NC(=O)[C@H](CC(C)C)NC(=O)[C@H](CC(C)C)NC(=O)[C@H](Cc1ccccc1)NC(=O)[C@H](C)NC(=O)[C@H](CCCNC(=N)N)NC(=O)[C@H](CCCNC(=N)N)NC(=O)[C@H](CCCNC(=N)N)NC(=O)[C@H](CCC(=O)O)NC(=O)[C@H](CC(=O)O)NC(=O)[C@H](CCC(N)=O)NC(=O)[C@@H](NC(=O)[C@H](CO)NC(=O)[C@H](CCCCN)NC(=O)CNC(=O)[C@H](CCCCN)NC(=O)[C@H](CC(=O)O)NC(=O)[C@H](Cc1c[nH]cn1)NC(=O)[C@H](CC(C)C)NC(=O)[C@H](CC(C)C)NC(=O)[C@H](CCC(N)=O)NC(=O)[C@H](Cc1c[nH]cn1)NC(=O)[C@H](CCC(=O)O)NC(=O)[C@H](CO)NC(=O)[C@@H](NC(=O)[C@H](C)N)C(C)C)[C@@H](C)CC)C(N)=O [E18, A22, L25, K26-THrP(1-28)NH, E18,A22,L25,K26-PTHrP(1-28)] (H-AVSEHQLLHDKGKSIQDERRRAFLLKLI-NH2; N-terminus assumed)	Marked enhancements of cAMP-inducing activity	0.01 nM	0.01 nM	Marked enhancements	–	0.1 nM	–	340 % parent	0.083 nM	–	18317	1740 nM
